Like-named read-outs stand apart in the source and are kept apart here.
Legend:
[1] = Description: (§1) The 3xTg-AD mice and WT mice (female, 9 months old) used for the present study were habituated to handling for 14 days prior to the experiment. Female mice were used because the female 3xTg-AD mice develop behavioral deficits faster than the male mice. The selection of the age of 9 months was because the 3xTg-AD mice at this age show neurogenic and neuroplastic deficits but no NFTs or amyloid plaques and are cognitively impaired. Intranasal delivery was carried out manually without anesthesia while the mouse head was restrained in a supine position with the neck in extension, as described. A total of 1.75 U/17.5 μl insulin or 0.9% saline (Veh 1) was delivered over both nares alternatively using a 10 μl Eppendorf pipetter. The mouse was held for an additional 5-10 seconds to ensure the fluid was inhaled. […] All mice were treated with insulin or, as a control, saline daily for 7 consecutive days. […] The brains were removed immediately, and the rostral halves (separated coronally at the bregma level) of the mouse brains were dissected, flash frozen in dry ice, and stored at −80° C. for biochemical analyses at a later date.
Hypothermia is known to be a major factor underlying anesthesia-induced tau hyperphosphorylation. Therefore, the rectal temperature of the mice was determined.

[2] = system: tau protein kinases (GSK-3β, MAPK/ERK, cdk5, CaMKII, JNK); type: in vivo
Description: as §1
Mouse brain tissue was homogenized in pre-chilled buffer containing 50 mM Tris-HCl (pH 7.4), 50 mM GlcNAc, 20 μM UDP, 2.0 mM EGTA, 2 mM Na3VO4, 50 mM NaF, 20 mM Glycero-phosphate, 0.5 mM AEBSF, 10 μg/ml aprotinin, 10 μg/ml leupeptin, and 4 μg/ml pepstatin A. Protein concentrations of the homogenates were determined by using modified Lowery method. The samples were resolved in 10% or 12.5% SDS-PAGE and electro-transferred onto Immobilon-P membrane (Millipore, Bedford, Mass., USA). The blots were then probed with primary antibody and developed with the corresponding horseradish peroxidase-conjugated secondary antibody and ECL kit (Pierce, Rockford, Ill.). Densitometrical quantification of protein bands in Western blots were analyzed by using the TINA software (Raytest IsotopenmeBgerate GmbH, Straubenhardt, Germany).
Besides PP2A, tau phosphorylation is also regulated by several protein kinases. The levels of several tau protein kinases have been reported to be altered after anesthesia. We therefore determined the levels of the total and the activated form of several tau protein kinases, including glycogen synthase kinase-3β (GSK-3β), mitogen-activated protein kinase/extracellular signal-regulated kinase (MAPK/ERK), cyclin-dependent kinase 5 (cdk5), calcium/calmodulin-dependent protein kinase II (CaMKII), and c-Jun N-terminal kinase (JNK).

[3] = system: PP2A; assay: Western blot of PP2A-C level, methylation and Tyr307 phosphorylation in brain; type: in vivo, 3xTg-AD mice; conditions: intranasal insulin 7 days before propofol
Description: (§2) The 3xTg-AD mice and WT mice (female, 9 months old) used for the present study were habituated to handling for 14 days prior to the experiment. Female mice were used because the female 3xTg-AD mice develop behavioral deficits faster than the male mice. The selection of the age of 9 months was because the 3xTg-AD mice at this age show neurogenic and neuroplastic deficits but no NFTs or amyloid plaques and are cognitively impaired. Intranasal delivery was carried out manually without anesthesia while the mouse head was restrained in a supine position with the neck in extension, as described. A total of 1.75 U/17.5 μl insulin or 0.9% saline (Veh 1) was delivered over both nares alternatively using a 10 μl Eppendorf pipetter. The mouse was held for an additional 5-10 seconds to ensure the fluid was inhaled. […]
(§3) Mouse brain tissue was homogenized in pre-chilled buffer containing 50 mM Tris-HCl (pH 7.4), 50 mM GlcNAc, 20 μM UDP, 2.0 mM EGTA, 2 mM Na3VO4, 50 mM NaF, 20 mM Glycero-phosphate, 0.5 mM AEBSF, 10 μg/ml aprotinin, 10 μg/ml leupeptin, and 4 μg/ml pepstatin A. Protein concentrations of the homogenates were determined by using modified Lowery method. […] Densitometrical quantification of protein bands in Western blots were analyzed by using the TINA software (Raytest IsotopenmeBgerate GmbH, Straubenhardt, Germany).

[4] = system: tau phosphorylation; assay: Western blot of tau phosphorylation in brain homogenates of 3xTg-AD mice; type: in vivo; conditions: intranasal insulin 1.75 U daily 7 days before propofol, 30 min following propofol
Description: as §2, §3

[5] = system: brain insulin signaling; assay: Western blot of brain insulin signaling components; type: in vivo, 3xTg-AD mice; conditions: intranasal insulin 7 days prior to propofol; 3xTg-ins/prop vs 3xTg-veh1/prop
Description: as §2, §3

[6] = system: phosphorylated tau; assay: Immunohistochemical staining of brain sections with 12E8 and PHF-1; type: in vivo, 3xTg-AD mice; conditions: frontal cortex; 30 min after propofol; 3xTg-ins/prop vs 3xTg-veh1/prop
Description: as §1

[7] = system: old wild type mice; assay: Morris water maze (MWM) test after anesthesia
Description: This paradigm of anesthesia is similar to that used clinically for surgical patents in the U.S. The cognitive function of the mice was assessed starting on the next day by using the Morris water maze (MWM) test, a widely used cognitive test for rodents.
Probe testing was carried out on the following day after four-day training and was used to evaluate the retrieval of spatial memory.

[8] = insulin treatment before anesthesia vs anesthesia alone

Compound	average rectal temperature ([1]; two hours after propofol injection (250 mg/kg i.p.))	average rectal temperature ([1]; within 30 min after propofol injection (250 mg/kg i.p.), from around 38.2° C.)	GSK-3β and ERK ([2]; after anesthesia with propofol)	JNK ([2]; after anesthesia with propofol)	a few other tau kinases ([2]; after anesthesia with propofol)	inhibitory Ser9 phosphorylation of GSK-3β ([2]; after anesthesia with propofol)	net PP2A methylation ([3]; after normalization with the PP2A-C level)	level and methylation of PP2A in the mouse brain ([3]; normalized with GAPDH, vs 3xTg-veh1/prop)	body temperature, insulin-treated vs untreated mice ([1]; during propofol anesthesia, intranasal insulin 7 days before)	phosphorylation level of tau at Thr212, Ser262/356 (12E8 sites), Ser396/404 (PHF-1 sites), Ser409 ([4]; 3xTg-ins/prop vs 3xTg-veh1/prop)	phosphorylation level of tau at Thr181, Ser199, Thr205, Thr231, Ser422 ([4]; insulin-treated vs untreated)	CDK5, CaMKII pT286 and JNK pT184/pY185 ([2]; intranasal insulin treatment, propofol-treated mouse brains)	levels of IRβ, IGF-1Rβ, IRβ pY1150/1151, IRS1 pS307, PI3K p85 pY458, PI3K p55 pY199, PDK1, AKT and AKT pT308 [5]	number of strongly stained neurons (12E8, PHF-1) [6]	swimming speeds ([7]; among the four groups (control, anesthesia, insulin+anesthesia, insulin))	number of platform location crossing during probe test [7, 8]	time to reach the platform location during probe test [7, 8]	spatial learning ([7]; insulin treatment to control mice without anesthesia)	learning performance (time to reach the platform, four training days) ([7]; intranasal insulin 1.75 IU/mouse/day for 7 days before one-time anesthesia)
CC(C)c1cccc(C(C)C)c1O [propofol]	25.6 °C	28.6 °C	inhibition	activation	moderate alterations	dramatic increase	–	–	–	–	–	–	–	–	–	–	–	–	–
Insulin	–	–	–	–	–	–	not increased	significant increase	no difference	significantly lower	the decreases did not reach statistical significance	mild to moderate reductions	up-regulated	markedly reduced	not different	increased	decreased	did not affect spatial learning significantly	as good as control mice

From patent US9603905B2, “Intranasal insulin administration for the minimization of anesthesia-induced memory loss” (priority 2014, dated 2017)
